{"source": "patent US20220177511A1", "about": "“SERIES OF HALOGENATED TETRACYCLIC TRITERPENE DERIVATIVES AND THEIR PREPARATION AND APPLICATION” (SHANGHAI KING-X BIOTECH CO., LTD, priority 2019, published 2022)", "key": {"[1]": {"test": "Plasma pharmacokinetics after single intragastric administration in rats", "format": "in vivo, SD rat", "conditions": "for AUC0-t / AUC(0-inf) / CL/F / Cmax / Tmax / half-life / MRT inf / Vd/F: single gavage 10 mg/kg, Mean ± SD; for bioavailability: SD, single gavage 10 mg/kg vs intravenous 2 mg/kg; for MRT inf: read-out: MRT0-∞; for Vd/F: read-out: Vz/F", "procedure": "Strain: SD rat; Gender: half male and female. Weight: about 200-250 g. Source: Shanghai Slac Laboratory Animal Co., Ltd. Laboratory Animal Production License No.: SOCK (Shanghai) 2017-0005. Laboratory Animal Use License Certificate number: SYXK (Shanghai) 2014-0018. Breeding: constant temperature purification and ventilation animal room, 20-26° C., free food and water, humidity 40-70%, light for 12 h.\nRoute A: single oral administration. Volume: calculated according to 10 mL/kg body weight. Preparation: an appropriate amount of compound 2 is added to a small amount of 0.5% CMC-Na and grinded, and another portion of 0.5% CMC-Na was added to form a suspension.\n12 SD rats were divided into 2 groups, 6 rats in each group, […]. Fasting for 12 h before administration, free drinking water. The doses of 10 mg/kg were administered as a single gavage, and the doses of 2 mg/kg were administered as a single intravenous injection. About 100 μL orbital blood was collected before administration, 3 min, 10 min, 20 min, 30 min, 1 h, 2 h, 3 h, 4 h, 6 h, 8 h, 11 h, and 24 h after administration. For intravenous administration, orbital blood was collected before administration, 3 min, 8 min, 15 min, 30 min, 1 h, 2 h, 3 h, 4 h, 6 h, 8 h, 11 h, 24 h after injection. The blood was anticoagulated with 1% heparin, centrifuged at 8000 rpm for 4 min, and the plasma was separated. Store at −20° C. High concentration samples were diluted with blank plasma. 2.1.4 Determination method of plasma samples 2.1.4.1 Instrument (LC-MS/MS)\nLiquid chromatography system: Ultimate3000 liquid chromatography system (including Ultimate3000 ternary infusion pump, Ultimate3000 column oven, Ultimate3000 autosampler and Ultimate3000 vacuum degasser), Dionex Corporation. MS/MS system: 4000 Q-Trap tandem mass spectrometer with electrospray ionization source (ESI source), AB Company\nColumn: Athena C18-WP 100A (2.1×50 mm, 5 μm); Injection volume: 10 μL; Mobile phase: A: acetonitrile; C: 0.05% ammonia, gradient elution (see table below); Flow rate: 0.3 mL/min\nThe ion source is electrospray ionization source (ESI), the drying gas (N2) temperature is 500° C., the electrospray voltage is −4500 V, the detection method is negative ion detection, the scanning method is the […] (MRM) method and the scanning time is 0.15 s. The mass spectrometry parameters are as follows:\n50 μL of rat whole blood was added with 2.5 μL of internal standard working solution (250 ng/mL tolbutamide). 150 μL of acetonitrile was used to precipitate the proteins. The sample was centrifuged at 13,000 rpm and 4° C. for 5 min. The upper organic phase was taken and filtered with a 0.22 μM microporous membrane, which was then analyzed by LC-MS/MS. […]"}, "[2]": {"test": "Metabolic stability in human liver microsomes", "format": "in vitro ADME", "procedure": "Preparation of the test sample: Compound 1 (prepared in Example 5), 2 (prepared in Example 4), and 5 (cycloastragenol, purchased from Chengdu Jintaihe Company) were dissolved with an appropriate amount of DMSO to obtain a concentration of 10 mM solution.\n1) The compound was diluted with DMSO to 0.5 mM, and diluted to 1/20 with PBS before the experiment.\n2) Human liver microsomes and potassium phosphate buffer were added to the EP tube respectively and mixed by gentle shaking.\n3) Pre-incubate the EP tube in a metal bath at 37° C. for 5 minutes. 4) Compound 1, 2 or 5 were added and incubated at 37° C.\n5) Take 100 μl of sample from the tube at 0, 60, 120, 240, and 360 minutes respectively, and add the sample to the stop tube (containing 100 μl of cooled acetonitrile solution). The mixture was shaken vigorously to terminate the reaction and then placed it in a −30° C. refrigerator until analysis.\n6) Centrifuge at 14300 r/min and 4° C. for 10 minutes, aspirate the supernatant and place it in a −30° C. refrigerator until analysis.\nColumn: Shim-pack XR-ODS II, 2.0×75 mm; mobile phase: mobile phase B: aqueous solution containing 0.2% formic acid; mobile phase A: acetonitrile solution; mobile phase ratio: […]"}, "[3]": {"test": "Solubility test in water and FaSSIF", "format": "physicochemical", "conditions": "thermodynamic from solid, 37° C., up to 24 hours, read-out: Solubility"}, "[4]": {"conditions": "both sexes, rat, plasma, po, all rats (♂ and ♀)"}, "[5]": {"conditions": "female, rat, plasma, po, rats ♀"}}, "note": "“Also recorded” adds a separate entry of the source. Read-outs that look alike come from different tables or passages of the source."}
{"smiles": "CC(C)(O)[C@@H]1CC[C@](C)([C@H]2[C@@H](O)C[C@@]3(C)[C@@H]4C[C@H](O)[C@H]5C(C)(C)C(F)(F)CC[C@@]56C[C@@]46CC[C@]23C)O1", "note": "[Compound 2, (2aR,3R,4S,5aS,5bS,7S,7aR,11aR,12aS)-9,9-difluoro-3-((2R,5S)-5-(2-hydroxypropan-2-yl)-2-methyltetrahydrofuran-2-yl)-2a,5a,8,8-tetramethyltetradecahydro-1H,12H-cyclopenta[a]cyclopropa[e]phenanthrene-4,7-diol]", "values": [{"measurement": "AUC0-t", "setting": "[1]; all rats (♂ and ♀), 10 mg/kg", "result": 1916, "unit": "ng·h/mL"}, {"measurement": "bioavailability", "setting": "[1]; both sexes, rat, plasma, po, all rats (♂ and ♀), read-out: F (mean absolute bioavailability)", "result": 22, "unit": "%"}, {"measurement": "AUC(0-inf)", "setting": "[1]; [4]", "result": "2450 ± 3070", "unit": "ng·h/mL"}, {"measurement": "CL/F", "setting": "[1]; [4]", "result": 140, "unit": "mL/min/kg"}, {"measurement": "Cmax", "setting": "[1]; [4]", "result": 323, "unit": "ng/mL"}, {"measurement": "Tmax", "setting": "[1]; [4]", "result": 2.17, "unit": "h"}, {"measurement": "half-life", "setting": "[1]; [4]", "result": 2.89, "unit": "h"}, {"measurement": "AUC0-t", "setting": "[1]; both sexes, rat, plasma, po, all rats (♂ and ♀), read-out: AUC0-t", "result": 1920, "unit": "ng·h/mL"}, {"measurement": "MRT inf", "setting": "[1]; [4]", "result": "4.4 ± 1.28", "unit": "h"}, {"measurement": "Vd/F", "setting": "[1]; [4]", "result": "27.9 ± 19", "unit": "L/kg"}, {"measurement": "bioavailability", "setting": "[1]; female, rat, plasma, po, rats ♀, read-out: F (absolute bioavailability)", "result": 28.4, "unit": "%"}, {"measurement": "AUC(0-inf)", "setting": "[1]; [5]", "result": "4040 ± 3990", "unit": "ng·h/mL"}, {"measurement": "CL/F", "setting": "[1]; [5]", "result": 71.2, "unit": "mL/min/kg"}, {"measurement": "Cmax", "setting": "[1]; [5]", "result": "459 ± 277", "unit": "ng/mL"}, {"measurement": "Tmax", "setting": "[1]; [5]", "result": "2.33 ± 0.58", "unit": "h"}, {"measurement": "half-life", "setting": "[1]; [5]", "result": "3.64 ± 2.54", "unit": "h"}, {"measurement": "AUC0-t", "setting": "[1]; female, rat, plasma, po, rats ♀, read-out: AUC0-t", "result": "3000 ± 2430", "unit": "ng·h/mL"}, {"measurement": "MRT inf", "setting": "[1]; [5]", "result": "5.01 ± 1.71", "unit": "h"}, {"measurement": "Vd/F", "setting": "[1]; [5]", "result": "15.8 ± 9.24", "unit": "L/kg"}, {"measurement": "bioavailability", "setting": "[1]; male, rat, plasma, po, rats ♂, read-out: F (absolute bioavailability)", "result": 15.6, "unit": "%"}, {"measurement": "AUC(0-inf)", "setting": "[1]; male, rat, plasma, po, rats ♂", "result": "859 ± 297", "unit": "ng·h/mL"}, {"measurement": "CL/F", "setting": "[1]; male, rat, plasma, po, rats ♂", "result": 208, "unit": "mL/min/kg"}, {"measurement": "Cmax", "setting": "[1]; male, rat, plasma, po, rats ♂", "result": "187 ± 37", "unit": "ng/mL"}, {"measurement": "Tmax", "setting": "[1]; male, rat, plasma, po, rats ♂", "result": "2 ± 1", "unit": "h"}, {"measurement": "half-life", "setting": "[1]; male, rat, plasma, po, rats ♂", "result": "2.14 ± 0.64", "unit": "h"}, {"measurement": "AUC0-t", "setting": "[1]; male, rat, plasma, po, rats ♂, read-out: AUC0-t", "result": 831, "unit": "ng·h/mL"}, {"measurement": "MRT inf", "setting": "[1]; male, rat, plasma, po, rats ♂", "result": "3.78 ± 0.24", "unit": "h"}, {"measurement": "Vd/F", "setting": "[1]; male, rat, plasma, po, rats ♂", "result": "40 ± 19.5", "unit": "L/kg"}, {"measurement": "metabolic stability in human liver microsomes", "setting": "[2]; compared with compound 5 (cycloastragenol)", "result": "relatively stable; also recorded: more stable than cycloastragenol"}, {"measurement": "half-life at 5 µM", "setting": "[2]; human, liver microsomes, 5 μM compound, 1 mg/mL microsomes, 37° C.", "result": 7.3, "unit": "h"}, {"measurement": "Solubility", "setting": "[3]; FaSSIF (pH 6.5)", "result": 15, "unit": "µg/mL"}, {"measurement": "Solubility", "setting": "[3]; Water", "result": 2, "unit": "µg/mL"}]}
